Key:
Escherichia coli [1] = assay: Antimicrobial activity against clinical isolate Escherichia coli CCM 4517 after 48 hrs; type: functional; details: CCM 4517, 48 h
[2] = test system: Staphylococcus epidermidis; assay: Antimicrobial activity against clinical isolate Staphylococcus epidermidis H 696608 after 48 hrs; type: functional; details: H 696608, 48 h
Aspergillus fumigatus [3] = assay: Antimicrobial activity against Aspergillus fumigatus 231 after 24 hrs by spectrophotometry; type: functional; details: Aspergillus fumigatus, 231, 24 h
Lichtheimia corymbifera [4] = assay: Antimicrobial activity against Absidia corymbifera 272 after 24 hrs by spectrophotometry; type: functional; details: Lichtheimia corymbifera, 272, 24 h
[5] = test system: Staphylococcus epidermidis; assay: Antimicrobial activity against clinical isolate Staphylococcus epidermidis H 696608 after 24 hrs; type: functional; details: H 696608, 24 h
Candida albicans [6] = assay: Antimicrobial activity against Candida albicans ATCC 44859 after 24 hrs by spectrophotometry; type: functional; details: ATCC 44859, 24 h
Lichtheimia corymbifera [7] = assay: Antimicrobial activity against Absidia corymbifera 272 after 48 hrs by spectrophotometry; type: functional; details: Lichtheimia corymbifera, 272, 48 h
Klebsiella pneumoniae [8] = assay: Antimicrobial activity against clinical isolate ESBL-Klebsiella pneumoniae J 1436808 after 24 hrs; type: functional; details: J 1436808, 24 h
Escherichia coli [9] = assay: Antimicrobial activity against clinical isolate Escherichia coli CCM 4517 after 24 hrs; type: functional; details: CCM 4517, 24 h
Nakaseomyces glabratus [10] = assay: Antimicrobial activity against Candida glabrata 20/I after 24 hrs by spectrophotometry; type: functional
Nakaseomyces glabratus [11] = assay: Antimicrobial activity against Candida glabrata 20/I after 48 hrs by spectrophotometry; type: functional
Candida tropicalis [12] = assay: Antimicrobial activity against Candida tropicalis 156 after 48 hrs by spectrophotometry; type: functional; details: Candida tropicalis, 156, 48 h
Staphylococcus aureus [13] = assay: Antimicrobial activity against clinical isolate Staphylococcus aureus CCM 451608 after 48 hrs; type: functional; details: CCM 451608, 48 h
Pichia kudriavzevii [14] = assay: Antimicrobial activity against Candida krusei E28 after 24 hrs by spectrophotometry; type: functional; details: E28, 24 h
Klebsiella pneumoniae [15] = assay: Antimicrobial activity against clinical isolate Klebsiella pneumoniae D 1175008 after 48 hrs; type: functional; details: D 1175008, 48 h
Pichia kudriavzevii [16] = assay: Antimicrobial activity against Candida krusei E28 after 48 hrs by spectrophotometry; type: functional; details: E28, 48 h
Enterococcus sp. [17] = assay: Antimicrobial activity against clinical isolate Enterococcus sp. J 1436508 after 24 hrs; type: functional; details: J 1436508, 24 h
Enterococcus sp. [18] = assay: Antimicrobial activity against clinical isolate Enterococcus sp. J 1436508 after 48 hrs; type: functional; details: J 1436508, 48 h
Trichosporon asahii [19] = assay: Antimicrobial activity against Trichosporon asahii 1188 after 48 hrs by spectrophotometry; type: functional; details: Trichosporon asahii, 1188, 48 h
[20] = test system: Trichophyton mentagrophytes; assay: Antimicrobial activity against Trichophyton mentagrophytes 445 after 72 hrs by spectrophotometry; type: functional; details: Trichophyton mentagrophytes, 445, 72 h
Klebsiella pneumoniae [21] = assay: Antimicrobial activity against clinical isolate ESBL-Klebsiella pneumoniae J 1436808 after 48 hrs; type: functional; details: J 1436808, 48 h
Staphylococcus aureus [22] = assay: Antimicrobial activity against clinical isolate methicillin-resistant Staphylococcus aureus H 599608 after 24 hrs; type: functional; details: H 599608, 24 h
Trichosporon asahii [23] = assay: Antimicrobial activity against Trichosporon asahii 1188 after 24 hrs by spectrophotometry; type: functional; details: Trichosporon asahii, 1188, 24 h
Staphylococcus aureus [24] = assay: Antimicrobial activity against clinical isolate Staphylococcus aureus CCM 451608 after 24 hrs; type: functional; details: CCM 451608, 24 h
Candida tropicalis [25] = assay: Antimicrobial activity against Candida tropicalis 156 after 24 hrs by spectrophotometry; type: functional; details: Candida tropicalis, 156, 24 h
Candida albicans [26] = assay: Antimicrobial activity against Candida albicans ATCC 44859 after 48 hrs by spectrophotometry; type: functional; details: ATCC 44859, 48 h
Pseudomonas aeruginosa [27] = assay: Antimicrobial activity against clinical isolate Pseudomonas aeruginosa CCM 1961 after 120 hrs; type: functional; details: CCM 1961, 120 h
Staphylococcus aureus [28] = assay: Antimicrobial activity against clinical isolate methicillin-resistant Staphylococcus aureus H 599608 after 48 hrs; type: functional; details: H 599608, 48 h
[29] = test system: Trichophyton mentagrophytes; assay: Antimicrobial activity against Trichophyton mentagrophytes 445 after 120 hrs by spectrophotometry; type: functional; details: Trichophyton mentagrophytes, 445, 120 h
Pseudomonas aeruginosa [30] = assay: Antimicrobial activity against clinical isolate Pseudomonas aeruginosa CCM 1961 after 72 hrs; type: functional; details: CCM 1961, 72 h
[31] = Cytotoxicity against CHOK1 cells after 24 hrs by MTT assay; type: cell-based; details: Cricetulus griseus, CHO-K1, 24 h
Aspergillus fumigatus [32] = assay: Antimicrobial activity against Aspergillus fumigatus 231 after 48 hrs by spectrophotometry; type: functional; details: Aspergillus fumigatus, 231, 48 h
Klebsiella pneumoniae [33] = assay: Antimicrobial activity against clinical isolate Klebsiella pneumoniae D 1175008 after 24 hrs; type: functional; details: D 1175008, 24 h

CCCCCCCCCCCCCC[n+]1ccc2c(O)cccc2c1
3.9 µM: MIC [2] | MIC [5] | MIC (Nakaseomyces glabratus [10]) | MIC (Nakaseomyces glabratus [11]) | MIC (Pichia kudriavzevii [14]) | MFC (Pichia kudriavzevii [16]) | MIC (Pichia kudriavzevii [16])
16 µM: MIC [20] | MIC [29]
31 µM: MIC (Aspergillus fumigatus [3]) | MFC [29] | MIC (Aspergillus fumigatus [32])
500 µM: MIC (Klebsiella pneumoniae [21])
125 µM: MFC (Lichtheimia corymbifera [7]) | MFC (Aspergillus fumigatus [32])
1 µM: MBC (Staphylococcus aureus [13])
24 µM: IC50 [31]
7.8 µM: MBC [2] | MFC (Nakaseomyces glabratus [11]) | MFC (Candida tropicalis [12]) | MIC (Candida tropicalis [12]) | MFC (Trichosporon asahii [19]) | MIC (Trichosporon asahii [19]) | MIC (Trichosporon asahii [23]) | MIC (Candida tropicalis [25])
> 500 µM: MBC (Escherichia coli [1]) | MIC (Escherichia coli [1]) | MIC (Klebsiella pneumoniae [8]) | MIC (Escherichia coli [9]) | MBC (Klebsiella pneumoniae [15]) | MIC (Klebsiella pneumoniae [15]) | MBC (Klebsiella pneumoniae [21]) | MBC (Pseudomonas aeruginosa [27]) | MIC (Pseudomonas aeruginosa [27]) | MIC (Pseudomonas aeruginosa [30]) | MIC (Klebsiella pneumoniae [33])
2 µM: MIC (Staphylococcus aureus [22]) | MBC (Staphylococcus aureus [28]) | MIC (Staphylococcus aureus [28])
63 µM: MIC (Lichtheimia corymbifera [4]) | MIC (Candida albicans [6]) | MIC (Lichtheimia corymbifera [7]) | MIC (Enterococcus sp. [17]) | MBC (Enterococcus sp. [18]) | MIC (Enterococcus sp. [18]) | MFC (Candida albicans [26]) | MIC (Candida albicans [26])
0.5 µM: MIC (Staphylococcus aureus [13]) | MIC (Staphylococcus aureus [24])

CCCCCCCCCCCCCCCC[n+]1ccc2c(O)cccc2c1
3.9 µM: MIC (Nakaseomyces glabratus [10]) | MFC (Nakaseomyces glabratus [11]) | MIC (Nakaseomyces glabratus [11])
16 µM: MIC (Candida albicans [6]) | MIC [20] | MIC (Candida albicans [26]) | MIC [29] | IC50 [31]
63 µM: MBC [2] | MIC [2] | MIC [5] | MIC (Enterococcus sp. [17]) | MBC (Enterococcus sp. [18]) | MIC (Enterococcus sp. [18]) | MIC (Trichosporon asahii [19]) | MIC (Trichosporon asahii [23])
500 µM: MIC (Klebsiella pneumoniae [21])
0.5 µM: MBC (Staphylococcus aureus [13]) | MIC (Staphylococcus aureus [13]) | MIC (Staphylococcus aureus [22]) | MIC (Staphylococcus aureus [24]) | MBC (Staphylococcus aureus [28]) | MIC (Staphylococcus aureus [28])
> 500 µM: MBC (Escherichia coli [1]) | MIC (Escherichia coli [1]) | MIC (Aspergillus fumigatus [3]) | MIC (Lichtheimia corymbifera [4]) | MFC (Lichtheimia corymbifera [7]) | MIC (Lichtheimia corymbifera [7]) | MIC (Klebsiella pneumoniae [8]) | MIC (Escherichia coli [9]) | MBC (Klebsiella pneumoniae [15]) | MIC (Klebsiella pneumoniae [15]) | MBC (Klebsiella pneumoniae [21]) | MBC (Pseudomonas aeruginosa [27]) | MIC (Pseudomonas aeruginosa [27]) | MIC (Pseudomonas aeruginosa [30]) | MFC (Aspergillus fumigatus [32]) | MIC (Aspergillus fumigatus [32]) | MIC (Klebsiella pneumoniae [33])
7.8 µM: MFC (Candida tropicalis [12]) | MIC (Candida tropicalis [12]) | MIC (Pichia kudriavzevii [14]) | MFC (Pichia kudriavzevii [16]) | MIC (Pichia kudriavzevii [16]) | MIC (Candida tropicalis [25])
125 µM: MFC (Trichosporon asahii [19]) | MFC (Candida albicans [26]) | MFC [29]

Source: ChEMBL document CHEMBL3751693, “Synthesis, antimicrobial evaluation and molecular modeling of 5-hydroxyisoquinolinium salt series; the effect of the hydroxyl moiety” (Bioorg Med Chem, 2016)
